According to patent EP4678629A1, “IONIZABLE LIPID MOLECULE, PREPARATION METHOD THEREFOR AND USE THEREOF” (Maxirna (Shanghai) Pharmaceutical Co., Ltd., priority 2023, dated 2024):

Assays:
[1] = Size and polydispersity index (PDI) of the lipid nanoparticle by dynamic light scattering; assay type: physicochemical; conditions: LNP encapsulating eGFP mRNA, ionizable lipid/DOPE/cholesterol/DMG-PEG2000 50/10/48.25/1.25 mol%, N/P 12; for Particle size: in nm (unit assumed)
Procedure, shortened: (§1)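 LNPs were made by microfluidic mixing of ionizable lipid/DOPE/cholesterol/DMG-PEG2000 (50/10/48.25/1.25 mol%) in ethanol with eGFP mRNA in 20 mM citrate pH 6.1, N/P 12, then ultrafiltered into DPBS and 0.2 µm filtered. Size and PDI by DLS at 173° backscatter; encapsulation by Ribogreen.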

[2] = tested on: DC2.4 cells; assay: In vitro transfection of cells with eGFP-mRNA lipid nanoparticle (LNP preparation), fluorescence imaging and flow cytometry; assay type: cell-based, mouse; conditions: eGFP positivity rate, DC2.4 cells, 200 ng of mRNA per well, after 24 hours
Procedure, shortened: (§2)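 Mouse bone marrow-derived DC2.4 dendritic cells seeded at 2 × 10^5 cells/well in DMEM with 10% FBS, transfected with eGFP-mRNA LNPs the next day at 37 °C, 5% CO2. After 24 hours, viability, eGFP-positive rate and mean fluorescence intensity read by fluorescence imaging and flow cytometry.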

[3] = as above; assay type: cell-based, mouse; conditions: mouse, dc2.4 cells, 200 ng of mRNA per well, after 24 hours; read-out: Cell viability, %
Procedure, shortened: as §2

[4] = Encapsulation efficiency of the lipid nanoparticle (eGFP mRNA) by Ribogreen method; assay type: physicochemical; conditions: LNP encapsulating eGFP mRNA, ionizable lipid/DOPE/cholesterol/DMG-PEG2000 50/10/48.25/1.25 mol%, N/P 12
Procedure, shortened: as §1

## CCCCCCCCCCCOC(=O)CCCCN(CCCO)CCCN(CCCCC(=O)OCCCCCCCCCCC)CCCCC(=O)OCCCCCCCCCCC [Example 42, Diundecyl 5,5'-((3-((3-hydroxypropyl)(5-oxo-5-(undecyloxy)pentyl)amino)propyl)azadiyl)dipentanoate]
[1]
  PDI: 0.11
  Particle size: 98.73
[2]
  Positive rate, %: 96.69%
[3]
  viability at 24 h: 94.1%
[4]
  Encapsulation rate, %: 98.13%

## CCCCCCCCCCCOC(=O)CCCCN(CCCCO)CCCN(CCCCC(=O)OCCCCCCCCCCC)CCCCC(=O)OCCCCCCCCCCC [Example 43, Diundecyl 5,5'-((3-((4-hydroxybutyl)(5-oxo-5-(undecyloxy)pentyl)amino)propyl)azahexyl)dipentanoate]
[1]
  PDI: 0.14
[2]
  Positive rate, %: 97.48%
[3]
  viability at 24 h: 88.2%
[4]
  Encapsulation rate, %: 87.08%

## CCCCCCCCCCCCOC(=O)CCCCCN(CCO)CCCN(CCCCCC(=O)OCCCCCCCCCCCC)CCCCCC(=O)OCCCCCCCCCCCC [Example 44, Didodecyl 6,6'-((3-((6-(dodecoxy)-6-oxohexyl)(2-hydroxyethyl)amino)propyl)azahexyl)dihexanoate]
[1]
  PDI: 0.20
[2]
  Positive rate, %: 94.2%
[3]
  viability at 24 h: 91.9%
[4]
  Encapsulation rate, %: 99.38%

## CCCCCCCCCCCCOC(=O)CCCCCN(CCCO)CCCN(CCCCCC(=O)OCCCCCCCCCCCC)CCCCCC(=O)OCCCCCCCCCCCC [Example 45, Didodecyl 6,6'-((3-((6-(dodecoxy)-6-oxohexyl)(3-hydroxypropyl)amino)propyl)azahexyl)dihexanoate]
[1]
  PDI: 0.20
  Particle size: 84.66
[2]
  Positive rate, %: 95.29%
[3]
  viability at 24 h: 95%
[4]
  Encapsulation rate, %: 99.60%

## CCCCCCCCCCCCOC(=O)CCCCCN(CCCCO)CCCN(CCCCCC(=O)OCCCCCCCCCCCC)CCCCCC(=O)OCCCCCCCCCCCC [Example 46, Didodecyl 6,6'-((3-((6-(dodecyloxy)-6-oxohexyl)(4-hydroxybutyl)amino)propyl)azanediyl)dihexanoate]
[1]
  PDI: 0.22
  Particle size: 72.75
[2]
  Positive rate, %: 96.64%
[3]
  viability at 24 h: 97.4%
[4]
  Encapsulation rate, %: 99.86%

## CCCCCCCCCCCCOC(=O)CCCCCCN(CCO)CCCN(CCCCCCC(=O)OCCCCCCCCCCCC)CCCCCCC(=O)OCCCCCCCCCCCC [Example 47, Didodecyl 7,7'-((3-((7-(dodecyloxy)-7-oxoheptyl)(2-hydroxyethyl)amino)propyl)azanediyl)diheptanoate]
[1]
  PDI: 0.26
  Particle size: 83.85
[2]
  Positive rate, %: 97.39%
[3]
  viability at 24 h: 88.5%
[4]
  Encapsulation rate, %: 99.77%

## CCCCCCCCCCCCOC(=O)CCCCCCN(CCCO)CCCN(CCCCCCC(=O)OCCCCCCCCCCCC)CCCCCCC(=O)OCCCCCCCCCCCC [Example 48, Didodecyl 7,7'-((3-((7-(dodecyloxy)-7-oxoheptyl)(3-hydroxypropyl)amino)propyl)azanediyl)diheptanoate]
[1]
  PDI: 0.16
  Particle size: 76.18
[2]
  Positive rate, %: 97.26%
[3]
  viability at 24 h: 94%
[4]
  Encapsulation rate, %: 99.52%

## CCCCCCCCCCCCOC(=O)CCCCCCN(CCCCO)CCCN(CCCCCCC(=O)OCCCCCCCCCCCC)CCCCCCC(=O)OCCCCCCCCCCCC [Example 49, Didodecyl 7,7'-((3-((7-(dodecyloxy)-7-oxoheptyl)(4-hydroxybutyl)amino)propyl)azanediyl)diheptanoate]
[1]
  PDI: 0.15
  Particle size: 74.58
[2]
  Positive rate, %: 97.38%
[3]
  viability at 24 h: 91.6%
[4]
  Encapsulation rate, %: 99.79%

## CCCCCCCCCCCCOC(=O)CCCCCCCN(CCO)CCCN(CCCCCCCC(=O)OCCCCCCCCCCCC)CCCCCCCC(=O)OCCCCCCCCCCCC [Example 50, Didodecyl 8,8'-((3-((8-(dodecyloxy)-8-oxooctyl)(2-hydroxyethyl)amino)propyl)azanediyl)dioctanoate]
[1]
  PDI: 0.20
  Particle size: 76.74
[2]
  Positive rate, %: 99.74%
[3]
  viability at 24 h: 90.4%
[4]
  Encapsulation rate, %: 99.63%

## CCCCCCCCCCCCOC(=O)CCCCCCCN(CCCO)CCCN(CCCCCCCC(=O)OCCCCCCCCCCCC)CCCCCCCC(=O)OCCCCCCCCCCCC [Example 51, Didodecyl 8,8'-((3-((8-(dodecyloxy)-8-oxooctyl)(3-hydroxypropyl)amino)propyl)azanediyl)dioctanoate]
[1]
  PDI: 0.18
  Particle size: 75.07
[2]
  Positive rate, %: 99.64%
[3]
  viability at 24 h: 92%
[4]
  Encapsulation rate, %: 99.28%

## CCCCCCCCCCCCOC(=O)CCCCCCCN(CCCCO)CCCN(CCCCCCCC(=O)OCCCCCCCCCCCC)CCCCCCCC(=O)OCCCCCCCCCCCC [Example 52, Didodecyl 8,8'-((3-((8-(dodecyloxy)-8-oxooctyl)(4-hydroxybutyl)amino)propyl)azanediyl)dioctanoate]
[1]
  PDI: 0.17
  Particle size: 69.63
[2]
  Positive rate, %: 85.37%
[3]
  viability at 24 h: 82.9%
[4]
  Encapsulation rate, %: 99.18%

## CCCCCCCCCCCCCCOC(=O)CCCCCN(CCO)CCCN(CCCCCC(=O)OCCCCCCCCCCCCCC)CCCCCC(=O)OCCCCCCCCCCCCCC [Example 53, Ditetradecyl 6,6'-((3-((2-hydroxyethyl)(6-oxo-6-(tetradecyloxy)hexyl)amino)propyl)azanediyl)dihexanoate]
[1]
  PDI: 0.09
  Particle size: 91.34
[2]
  Positive rate, %: 86.07%
[3]
  viability at 24 h: 68.6%
[4]
  Encapsulation rate, %: 97.67%

## CCCCCCCCCCCCCCOC(=O)CCCCCN(CCCO)CCCN(CCCCCC(=O)OCCCCCCCCCCCCCC)CCCCCC(=O)OCCCCCCCCCCCCCC [Example 54, Ditetradecyl 6,6'-((3-((3-hydroxypropyl)(6-oxo-6-(tetradecyloxy)hexyl)amino)propyl)azanediyl)dihexanoate]
[1]
  PDI: 0.14
  Particle size: 72.45
[2]
  Positive rate, %: 93.13%
[3]
  viability at 24 h: 75.9%
[4]
  Encapsulation rate, %: 98.91%

## CCCCCCCCCCCCCCOC(=O)CCCCCN(CCCCO)CCCN(CCCCCC(=O)OCCCCCCCCCCCCCC)CCCCCC(=O)OCCCCCCCCCCCCCC [Example 55, Ditetradecyl 6,6'-((3-((4-hydroxybutyl)(6-oxo-6-(tetradecyloxy)hexyl)amino)propyl)azanediyl)dihexanoate]
[1]
  PDI: 0.10
  Particle size: 71.95
[2]
  Positive rate, %: 92.64%
[3]
  viability at 24 h: 86.6%
[4]
  Encapsulation rate, %: 98.32%

## CCCCCCCCCCCCCCOC(=O)CCCCCCN(CCO)CCCN(CCCCCCC(=O)OCCCCCCCCCCCCCC)CCCCCCC(=O)OCCCCCCCCCCCCCC [Example 56, Ditetradecyl 7,7'-((3-((2-hydroxyethyl)(7-oxo-7-(tetradecyloxy)heptyl)amino)propyl)azanediyl)diheptanoate]
[1]
  PDI: 0.14
  Particle size: 64.31
[2]
  Positive rate, %: 93.64%
[3]
  viability at 24 h: 80.5%
[4]
  Encapsulation rate, %: 99.68%

## CCCCCCCCCCCCCCOC(=O)CCCCCCN(CCCO)CCCN(CCCCCCC(=O)OCCCCCCCCCCCCCC)CCCCCCC(=O)OCCCCCCCCCCCCCC [Example 57, Ditetradecyl 7,7'-((3-((3-hydroxypropyl)(7-oxo-7-(tetradecyloxy)heptyl)amino)propyl)azanediyl)diheptanoate]
[1]
  PDI: 0.17
  Particle size: 68.32
[2]
  Positive rate, %: 97.36%
[3]
  viability at 24 h: 76.9%
[4]
  Encapsulation rate, %: 99.36%

## CCCCCCCCCCCCCCOC(=O)CCCCCCN(CCCCO)CCCN(CCCCCCC(=O)OCCCCCCCCCCCCCC)CCCCCCC(=O)OCCCCCCCCCCCCCC [Example 58, Ditetradecyl 7,7'-((3-((4-hydroxybutyl)(7-oxo-7-(tetradecyloxy)heptyl)amino)propyl)azanediyl)diheptanoate]
[1]
  PDI: 0.16
  Particle size: 79.13
[2]
  Positive rate, %: 87.44%
[3]
  viability at 24 h: 63.2%
[4]
  Encapsulation rate, %: 99.17%

## CCCCCCCCCCCCCCOC(=O)CCCCCCCN(CCO)CCCN(CCCCCCCC(=O)OCCCCCCCCCCCCCC)CCCCCCCC(=O)OCCCCCCCCCCCCCC [Example 59, Ditetradecyl 8,8'-((3-((2-hydroxyethyl)(8-oxo-8-(tetradecyloxy)octyl)amino)propyl)azanediyl)dioctanoate]
[1]
  PDI: 0.08
[2]
  Positive rate, %: 96.89%
[3]
  viability at 24 h: 55.6%
[4]
  Encapsulation rate, %: 91.15%

## CCCCCCCCCCCCCCOC(=O)CCCCCCCN(CCCO)CCCN(CCCCCCCC(=O)OCCCCCCCCCCCCCC)CCCCCCCC(=O)OCCCCCCCCCCCCCC [Example 60, Ditetradecyl 8,8'-((3-((3-hydroxypropyl)(8-oxo-8-(tetradecyloxy)octyl)amino)propyl)azanediyl)dioctanoate]
[1]
  PDI: 0.10
  Particle size: 65.40
[2]
  Positive rate, %: 97.14%
[3]
  viability at 24 h: 72.3%
[4]
  Encapsulation rate, %: 99.46%

## CCCCCCCCCCCCCCOC(=O)CCCCCCCN(CCCCO)CCCN(CCCCCCCC(=O)OCCCCCCCCCCCCCC)CCCCCCCC(=O)OCCCCCCCCCCCCCC [Example 61, Ditetradecyl 8,8'-((3-((4-hydroxybutyl)(8-oxo-8-(tetradecyloxy)octyl)amino)propyl)azanediyl)dioctanoate]
[1]
  PDI: 0.13
  Particle size: 82.47
[2]
  Positive rate, %: 95.85%
[3]
  viability at 24 h: 71.2%
[4]
  Encapsulation rate, %: 97.38%
